Measured values from publication PMC8597116 (Clinical Pharmacology in Drug Development, 2021).
Values joined by “and” are separate entries in the source; they are usually repeats but may differ in a detail not shown here. Equal entries are not always repeated. Where two headings read alike, the source gives them in different places. Blank lines part the entries; values can stand above or below the compound they belong to.

Key:
[1] = for MPR AUC0‐t (metabolite‐to‐parent ratio) / MPR AUCinf (metabolite‐to‐parent ratio) / MPR Cmax (metabolite‐to‐parent, 5‐HVLX‐gluc to viloxazine, ratio): adjusted for molecular weights; for AUC0‐t, geometric mean / AUCinf, geometric mean / Cmax, geometric mean: geometric least‐squares mean of log‐transformed values
clinical = details: human, plasma, oral
CYP1A2 = details: cited from earlier work
CYP2B6 = details: read-out: CYP2B6 IC50; cited from earlier work
CYP2D6 [2] = details: read-out: CYP2D6 IC50; cited from earlier work
CYP3A4/5 = details: read-out: CYP3A4/5 IC50; two values given; cited from earlier work
CYP2C8 = details: read-out: CYP2C8 IC50; cited from earlier work
CYP2C9 = details: read-out: CYP2C9 IC50; cited from earlier work
CYP2C19 = details: read-out: CYP2C19 IC50; cited from earlier work
CYP2D6 [3] = details: cited from earlier work
[4] = Steady-state plasma pharmacokinetics of paroxetine, healthy adults; type: in vivo, human
[5] = Safety monitoring: treatment-related adverse events in healthy adults; type: in vivo, human; details: n = 22 per treatment period
[6] = combination versus SPN‐812 alone
[7] = paroxetine 20 mg QD coadministration
[8] = day 13, paroxetine 20 mg once daily, mean ± SD
[9] = Combination (period 3), mean ± SD
[10] = SPN‐812 alone (period 1), 700 mg single dose, plasma, mean ± SD
[11] = SPN‐812 alone (period 1), mean ± SD
[12] = geometric LS mean ratio, period 3/period 1

- change (increase) in AUC / exposure with CYP2D6 inhibition by paroxetine [1, 6]: < 35%
- delay of median Tmax after the combination compared with SPN‐812 alone [1, 6]: ≈ 1 hour
- increase in AUC0‐t after the combination versus SPN‐812 alone [1, 7]: under 35%
- increase in AUCinf after the combination versus SPN‐812 alone [1, 7]: under 35%
- increase in Cmax after the combination versus SPN‐812 alone [1, 7]: 16%
- half-life (clinical; 700 mg): 5.2 ± 2.3 h
- AUC (clinical; AUC0‐t, Combination (period 3): SPN‐812 700 mg + paroxetine 20 mg QD, mean ± SD): 112000 ± 23900 ng·h/mL
Structure (SMILES): CCOc1ccccc1OCC1CNCCO1 (stereo not drawn) [Viloxazine, viloxazine]
- IC50 (CYP1A2; read-out: CYP1A2 reversible inhibition IC50, reversible inhibition): 0.269 µM
- IC50 (CYP1A2; read-out: CYP1A2 time‐dependent inhibition IC50, after 30 minute preincubation with nicotinamide adenine dinucleotide phosphate): 0.0436 µM
- IC50 (CYP2B6): 184 µM
- IC50 (CYP2D6 [2]): 141 µM
- IC50 (CYP3A4/5): 221 µM and 352 µM
- IC50 (CYP2C8): > 1010 µM
- IC50 (CYP2C9): > 1010 µM
- IC50 (CYP2C19): > 1010 µM
- share of CYP2D6 in the formation of 5‐hydroxyviloxazine (CYP2D6 [3]): < 50%

- Cavg [4, 8]: 29.6 ± 15.7 ng/mL
- Cmin,ss [4, 8]: 22.3 ± 13.4 ng/mL
- AUC ([4]; human, plasma, oral, 20 mg): 709 ± 377 ng·h/mL
- Cmax ([4]; human, plasma, oral, 20 mg): 39 ± 19 ng/mL
- Tmax ([4]; human, plasma, oral, 20 mg): 6 h
Structure (SMILES): Fc1ccc([C@@H]2CCNC[C@H]2COc2ccc3c(c2)OCO3)cc1 [Paroxetine, paroxetine]
- Abnormal dreams (treatment‐related) [5]: 0 n (%)
- Any adverse event (treatment‐related) [5]: 3 (13.6%) n (%)
- Decreased appetite (treatment‐related) [5]: 0 n (%)
- Diarrhea (treatment‐related) [5]: 3 (13.6%) n (%)
- Dysgeusia (treatment‐related) [5]: 0 n (%)
- Palpitations (treatment‐related) [5]: 0 n (%)
- Somnolence (treatment‐related) [5]: 0 n (%)

- MPR AUC0‐t (metabolite‐to‐parent ratio) [1, 9]: 0.31 ± 0.08 (25.2%)
- MPR AUCinf (metabolite‐to‐parent ratio) [1, 9]: 0.31 ± 0.08 (25.1%)
- MPR Cmax (metabolite‐to‐parent, 5‐HVLX‐gluc to viloxazine, ratio) [1, 9]: 0.33 ± 0.06 (19.2%)
- AUC0‐t, geometric mean ([1]; Combination (period 3)): 60.1
- AUCinf, geometric mean ([1]; Combination (period 3)): 60.3
- Cmax, geometric mean ([1]; Combination (period 3)): 2.8
- AUC0‐t [1, 10]: 70.5 ± 19.6 (27.8%) μg·h/mL
- AUCinf [1, 10]: 70.7 ± 19.7 (27.9%) μg·h/mL
- Cmax [1, 10]: 3.5 ± 0.8 (24.2%) μg/mL
- t1/2 [1, 10]: 5.7 ± 1.7 (29.6%) h
- MPR AUC0‐t (metabolite‐to‐parent ratio) [1, 11]: 0.49 ± 0.15 (31.1%)
- MPR AUCinf (metabolite‐to‐parent ratio) [1, 11]: 0.48 ± 0.15 (31.5%)
- MPR Cmax (metabolite‐to‐parent, 5‐HVLX‐gluc to viloxazine, ratio) [1, 11]: 0.47 ± 0.12 (27.4%)
- AUC0‐t, geometric mean ([1]; SPN‐812 alone (period 1)): 67.8
- AUCinf, geometric mean ([1]; SPN‐812 alone (period 1)): 67.9
- Cmax, geometric mean ([1]; SPN‐812 alone (period 1)): 3.4
- delay of median Tmax after the combination compared with SPN‐812 alone [1, 6]: ≈ 3 hour
- AUC0‐t ratio, combination/SPN‐812 alone (relative bioavailability) [1, 12]: 88.75% and 88.8%
- AUCinf ratio, combination/SPN‐812 alone (relative bioavailability) [1, 12]: 88.77% and 88.8%
- Cmax ratio, combination/SPN‐812 alone (relative bioavailability) [1, 12]: 83.05% and 83.1%
- decrease in AUC0‐t after the combination versus SPN‐812 alone [1, 7]: 12%
- decrease in AUCinf after the combination versus SPN‐812 alone [1, 7]: 12%
- decrease in Cmax after the combination versus SPN‐812 alone [1, 7]: 17%
Structure (SMILES): CCOc1ccc(O[C@@H]2O[C@H](C(=O)O)[C@@H](O)[C@H](O)[C@H]2O)cc1OCC1CNCCO1 (stereo partly drawn) [5‐HVLX‐gluc, 5‐hydroxyviloxazine glucuronide]
